Measured values published in PubChem BioAssay (NCI).
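Interpolation was linear, between the two tested concentrations surrounding the appropriate level; five concentrations were tested over 48 hours in 96-well plates. TGI denotes the concentration required for complete inhibition of growth.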

Assays:
Assay in all cases: NCI-60 cell line screen, 48 h
[1] = system: SR leukemia
[2] = system: SF-295 CNS
[3] = system: MOLT-4 leukemia
[4] = system: SN12C renal
[5] = system: SK-OV-3 ovarian
[6] = system: MALME-3M melanoma
[7] = system: UACC-257 melanoma
[8] = system: SNB-19 CNS
[9] = system: OVCAR-4 ovarian
[10] = system: HOP-92 NSCLC
[11] = system: HS 578T breast
[12] = system: UACC-62 melanoma
[13] = system: MDA-MB-435
[14] = system: HCT-15 colon
[15] = system: LOX IMVI melanoma
[16] = system: CCRF-CEM leukemia
[17] = system: OVCAR-8 ovarian
[18] = system: U251 CNS
[19] = system: A498 renal
[20] = system: K-562 leukemia
[21] = system: 786-0 renal
[22] = system: DU-145 prostate
[23] = system: UO-31 renal
[24] = system: HCT-116 colon
[25] = system: MDA-N
[26] = system: KM12 colon
[27] = system: EKVX NSCLC
[28] = system: IGROV1 ovarian
[29] = system: NCI-H23 lung
[30] = system: SK-MEL-28 melanoma
[31] = system: SF-268 CNS
[32] = system: OVCAR-5 ovarian
[33] = system: ACHN renal
[34] = system: SK-MEL-5 melanoma
[35] = system: MCF7 breast
[36] = system: NCI-H460 lung
[37] = system: SW-620 colon
[38] = system: HT29 colon
[39] = system: NCI-H226 lung
[40] = system: CAKI-1 renal
[41] = system: HOP-62 NSCLC
[42] = system: RXF 393 renal
[43] = system: A549 NSCLC
[44] = system: RPMI-8226 leukemia
[45] = system: PC-3 prostate
[46] = system: MDA-MB-231 breast
[47] = system: COLO 205 colon
[48] = system: NCI/ADR-RES ovarian
[49] = system: SK-MEL-2 melanoma
[50] = system: BT-549 breast
[51] = system: OVCAR-3 ovarian
[52] = system: SF-539 CNS
[53] = system: M14 melanoma
[54] = system: SNB-75 CNS
[55] = system: T-47D breast
[56] = system: NCI-H522 lung
[57] = system: TK-10 renal
[58] = system: HCC-2998 colon

CN(C)C(=O)OC1=CC2CCC(C1)N2C (configuration not stated)
TGI [1]: > 100 µM
TGI [2]: > 100 µM
TGI [3]: > 100 µM
TGI [4]: > 100 µM
TGI [5]: > 100 µM
TGI [6]: > 100 µM
TGI [7]: > 100 µM
TGI [8]: > 100 µM
TGI [9]: > 100 µM
TGI [10]: > 100 µM
TGI [11]: > 100 µM
TGI [12]: > 100 µM
TGI [13]: > 100 µM
TGI [14]: > 100 µM
TGI [15]: > 100 µM
TGI [16]: > 100 µM
TGI [17]: > 100 µM
TGI [18]: > 100 µM
TGI [19]: > 100 µM
TGI [20]: > 100 µM
TGI [21]: > 100 µM
TGI [22]: > 100 µM
TGI [23]: > 100 µM
TGI [24]: > 100 µM
TGI [25]: > 100 µM
TGI [26]: > 100 µM
TGI [27]: > 100 µM
TGI [28]: > 100 µM
TGI [29]: > 100 µM
TGI [30]: > 100 µM
TGI [31]: > 100 µM
TGI [32]: > 100 µM
TGI [33]: > 100 µM
TGI [34]: > 100 µM
TGI [35]: > 100 µM
TGI [36]: > 100 µM
TGI [37]: > 100 µM
TGI [38]: > 100 µM
TGI [39]: > 100 µM
TGI [40]: > 100 µM
TGI [41]: > 100 µM
TGI [42]: > 100 µM
TGI [43]: > 100 µM
TGI [44]: > 100 µM
TGI [45]: > 100 µM
TGI [46]: > 100 µM
TGI [47]: > 100 µM
TGI [48]: > 100 µM
TGI [49]: > 100 µM
TGI [50]: > 100 µM
TGI [51]: > 100 µM
TGI [52]: > 100 µM
TGI [53]: > 100 µM
TGI [54]: > 100 µM
TGI [55]: > 100 µM
TGI [56]: > 100 µM
TGI [57]: > 100 µM

OC(Cc1ccc2ccccc2n1)(C(F)(F)Cl)C(F)(F)Cl
TGI [1]: > 10 µM
TGI [2]: > 10 µM
TGI [3]: > 10 µM
TGI [4]: > 10 µM
TGI [5]: > 10 µM
TGI [6]: > 10 µM
TGI [7]: > 10 µM
TGI [8]: > 10 µM
TGI [9]: > 10 µM
TGI [10]: > 10 µM
TGI [11]: > 10 µM
TGI [12]: > 10 µM
TGI [13]: > 10 µM
TGI [14]: > 10 µM
TGI [15]: > 10 µM
TGI [16]: > 10 µM
TGI [17]: > 10 µM
TGI [18]: > 10 µM
TGI [19]: > 10 µM
TGI [20]: > 10 µM
TGI [21]: > 10 µM
TGI [22]: > 10 µM
TGI [23]: > 10 µM
TGI [24]: > 10 µM
TGI [25]: > 10 µM
TGI [26]: > 10 µM
TGI [27]: > 10 µM
TGI [28]: > 10 µM
TGI [29]: > 10 µM
TGI [30]: > 10 µM
TGI [31]: > 10 µM
TGI [32]: > 10 µM
TGI [33]: > 10 µM
TGI [34]: > 10 µM
TGI [35]: > 10 µM
TGI [36]: > 10 µM
TGI [37]: > 10 µM
TGI [38]: > 10 µM
TGI [39]: > 10 µM
TGI [40]: > 10 µM
TGI [41]: > 10 µM
TGI [43]: > 10 µM
TGI [45]: > 10 µM
TGI [46]: > 10 µM
TGI [47]: > 10 µM
TGI [48]: > 10 µM
TGI [50]: > 10 µM
TGI [58]: > 10 µM
TGI [51]: > 10 µM
TGI [52]: > 10 µM
TGI [53]: > 10 µM
TGI [54]: > 10 µM
TGI [55]: > 10 µM
TGI [56]: > 10 µM
TGI [57]: > 10 µM
